Assay results from ChEMBL document CHEMBL1135135, “Synthesis and cytotoxicity of 2alpha-amido docetaxel analogues” (Bioorg Med Chem Lett, 2002).

Key:
Format in all cases: functional, cell-based
Conditions in all cases: Homo sapiens
A549 [1] = test: Inhibitory activity against Taxol-resistant A549 lung cancer cell line
KB [2] = test: Inhibitory activity against Vincristine-resistant KB nasopharynx cancer cell line
A549 [3] = test: Inhibitory activity against A549 lung cancer cell line
KB [4] = test: Inhibitory activity against KB nasopharynx cancer cell line
MCF7 [5] = test: Inhibitory activity against Adriamycin-resistant MCF-7 breast cancer cell line
MCF7 [6] = test: Inhibitory activity against MCF-7 breast cancer cell line

IC50 (A549 [1]) [nM] | IC50 (KB [2]) [nM] | IC50 (A549 [3]) [nM] | IC50 (KB [4]) [nM] | IC50 (MCF7 [5]) [nM] | IC50 (MCF7 [6]) [nM] | SMILES
> 1000 | > 1000 | > 100 | > 100 |  |  | COc1ccc(C(=O)N[C@H]2C3[C@](C)(C(=O)[C@H](OC(C)=O)C4=C(C)[C@@H](OC(=O)[C@@H](O)[C@@H](NC(=O)OC(C)(C)C)c5ccccc5)C[C@]2(O)C4(C)C)[C@@H](O)C[C@H]2OC[C@@]32OC(C)=O)cc1 (some centres undefined)
 |  | 250 | 150 |  |  | CC(=O)O[C@H]1C(=O)[C@@]2(C)C([C@H](NC(=O)c3ccccc3)[C@]3(O)C[C@H](OC(=O)[C@@H](O)[C@@H](NC(=O)OC(C)(C)C)c4ccccc4)C(C)=C1C3(C)C)[C@]1(OC(C)=O)CO[C@@H]1C[C@@H]2O (some centres undefined)
> 1000 | > 1000 | > 100 | > 100 |  |  | CC(=O)O[C@H]1C(=O)[C@@]2(C)C([C@H](NC(=O)OCc3ccccc3)[C@]3(O)C[C@H](OC(=O)[C@@H](O)[C@@H](NC(=O)OC(C)(C)C)c4ccccc4)C(C)=C1C3(C)C)[C@]1(OC(C)=O)CO[C@@H]1C[C@@H]2O (some centres undefined)
1100 | > 1000 | 95 | 78 | > 4500 | 110 | CC(=O)O[C@H]1C(=O)[C@@]2(C)C([C@H](NC(=O)c3cccc(Cl)c3)[C@]3(O)C[C@H](OC(=O)[C@@H](O)[C@@H](NC(=O)OC(C)(C)C)c4ccccc4)C(C)=C1C3(C)C)[C@]1(OC(C)=O)CO[C@@H]1C[C@@H]2O (some centres undefined)
1000 | 1100 | 83 | 74 | > 4600 | 73 | COc1cccc(C(=O)N[C@H]2C3[C@](C)(C(=O)[C@H](OC(C)=O)C4=C(C)[C@@H](OC(=O)[C@@H](O)[C@@H](NC(=O)OC(C)(C)C)c5ccccc5)C[C@]2(O)C4(C)C)[C@@H](O)C[C@H]2OC[C@@]32OC(C)=O)c1 (some centres undefined)
> 1000 | > 1000 | > 100 | > 100 |  |  | CC(=O)O[C@H]1C(=O)[C@@]2(C)C([C@H](NC(=O)c3ccc(Cl)cc3)[C@]3(O)C[C@H](OC(=O)[C@@H](O)[C@@H](NC(=O)OC(C)(C)C)c4ccccc4)C(C)=C1C3(C)C)[C@]1(OC(C)=O)CO[C@@H]1C[C@@H]2O (some centres undefined)
> 1000 | > 1000 | > 100 | > 100 |  |  | CC(=O)O[C@H]1C(=O)[C@@]2(C)C([C@H](NC(=O)c3ccc([N+](=O)[O-])cc3)[C@]3(O)C[C@H](OC(=O)[C@@H](O)[C@@H](NC(=O)OC(C)(C)C)c4ccccc4)C(C)=C1C3(C)C)[C@]1(OC(C)=O)CO[C@@H]1C[C@@H]2O (some centres undefined)

The remaining lines, values behind:

SMILES | IC50 (A549 [1]) [nM] | IC50 (KB [2]) [nM] | IC50 (A549 [3]) [nM] | IC50 (KB [4]) [nM] | IC50 (MCF7 [5]) [nM] | IC50 (MCF7 [6]) [nM]
CC(=O)O[C@H]1C(=O)[C@@]2(C)C([C@H](NC(=O)c3cccc(Cl)c3)[C@]3(O)C[C@H](OC(=O)[C@@H](O)[C@@H](NC(=O)OC(C)(C)C)c4ccccc4)C(C)=C1C3(C)C)[C@@](CO)(OC(C)=O)[C@@H](O)C[C@@H]2O (some centres undefined) | > 1000 | > 1000 | > 100 | > 100 |  | 
CC(=O)O[C@H]1C(=O)[C@@]2(C)C([C@H](NC(=O)c3ccc(Cl)cc3)[C@]3(O)C[C@H](OC(=O)[C@@H](O)[C@@H](NC(=O)OC(C)(C)C)c4ccccc4)C(C)=C1C3(C)C)[C@@](CO)(OC(C)=O)[C@@H](O)C[C@@H]2O (some centres undefined) | > 1000 | > 1000 | > 100 | > 100 |  | 
CC(=O)O[C@H]1C(=O)[C@@]2(C)C([C@H](NC(=O)c3ccccc3)[C@]3(O)C[C@H](OC(=O)[C@@H](O)[C@@H](NC(=O)OC(C)(C)C)c4ccccc4)C(C)=C1C3(C)C)[C@@](CO)(OC(C)=O)[C@@H](O)C[C@@H]2O (some centres undefined) | > 1000 | > 1000 | > 100 | > 100 |  | 
CC(=O)O[C@@]12CO[C@@H]1C[C@H](O)[C@@]1(C)C(=O)[C@H](O)C3=C(C)[C@@H](OC(=O)[C@H](O)[C@@H](NC(=O)OC(C)(C)C)c4ccccc4)C[C@@](O)([C@@H](OC(=O)c4ccccc4)[C@H]21)C3(C)C [DOCETAXEL] | 98 | 200 | 4.1 | 4.4 | 4200 | 7.9
CC(=O)O[C@H]1C(=O)[C@@]2(C)[C@H]([C@H](OC(=O)c3ccccc3)[C@]3(O)C[C@H](OC(=O)[C@H](O)[C@@H](NC(=O)c4ccccc4)c4ccccc4)C(C)=C1C3(C)C)[C@]1(OC(C)=O)CO[C@@H]1C[C@@H]2O [PACLITAXEL] | 960 | 1700 | 12 | 9.1 | > 6000 | 5.5
